Laboratory results from US7943159B1, “Female sex pheromone of the dogwood borer (DWB), Synanthedon scitula, and attraction inhibitor (antagonist)” (The United States of America as represented by the …, priority 2006, dated 2011).
“Also recorded” adds a separate entry of the source.

How the values were obtained:
adult male DWB antenna = experiment: Coupled GC-EAD (electroantennographic detection) of synthetic octadecadienyl acetates; design: species or system Synanthedon scitula; settings: for EAD activity in 10 ng of loading: 10 ng loading, male DWB antenna, footnote: relative to E,Z-2,13-octadecadienyl acetate; for EAD activity / electroantennogram response: male DWB antennae, synthetic standards
Excerpt: Identification of peaks: 1, ZZ 3,13-ODDA; 2, EZ 2,13-ODDA; and 3, ZE 3,13-ODDA. Electrophysiological. Recordings and Mass Spectrometry: The coupled gas chromatographic-electroantennographic detection (GC-EAD) system used was as previously described (Zhang, A., and S. Polavarapu, J. Chem. Ecol., 29: 2153-2164 (2003); Zhang, A., and S. Polavarapu, J. Chem. Ecol., 30: 1531-1545 (2004); Zhang, A., et al., J. Chem. Ecol., 23: 231-245 (1997)). A Hewlett Packard (HP) 6890 gas chromatograph equipped with a 60 m×0.25-mm i.d., 0.25-mm film-thickness DB-[…] capillary column (J&W Scientific Inc., Folsom, Calif., 120° C. for 2 min, then programmed to 250° C. at 10° C./min and held for 10 min) or a 60 m×0.25-mm i.d., 0.25-mm film-thickness DB-5 capillary column (J&W Scientific Inc., 100° C. for 2 min, then programmed to 250° C. at 15° C./min and held for 10 min) in the splitless mode with hydrogen as carrier (1.4 ml/min) was used for GC-EAD analysis. Electronic impact (EI) gas chromatography-mass spectrometry (GC-MS) was conducted on a Hewlett-Packard 6890 GC coupled to a HP 5973 Mass Selective Detector using an identical DB-[…] capillary column (120° C. for 2 min, then programmed to 230° C. at 15° C./min and held for 25 min for regular analysis, but with helium as carrier gas. A 70 eV electron beam was employed for sample ionization.

[1] = test system: male DWB (Synanthedon scitula); experiment: Field trapping tests with lure-baited sticky traps in apple orchards; format: in vivo
Description: Field Trapping Tests: Red natural rubber septa (5 mm, Wheaton, N.J.) loaded with the desired rates of Z,Z-3,13-ODDA and the blends in […] of hexane solution were used for field deployment. The same amount of solvent (hexane) was loaded on the septum for the blank control. After loading, the solvent was allowed to evaporate in a fume hood for 30 min. Lures were then wrapped in aluminum foil, stored in 20 ml plastic vials, and shipped by express carrier on the same day. Upon arrival, the lures were kept in a freezer at −10° C. until deployed. All field tests were conducted in commercial apple fields in WV, VA, and NC using Pherocon 1C or Delta sticky traps (Trécé, Salinas, Calif.). Traps were placed in trees at ˜1.2 m above the ground (Riedi, Fla., et al., Cana. Entomol., 117: 1367-1377 (1985)). At each location, experimental lures were randomized within each of three to five rows (depending on the number of replicates per test) and separated by at least one buffer row, and traps were spaced at a minimum of ˜25 m intervals within a row. Traps were rotated among positions within each row at weekly intervals for the duration of each test. The number of dogwood borer, peachtree borer, lilac borer, and other male Sesiidae moths captured were recorded weekly. In the first comparison trial, the following lures were deployed: the single component (100% Z,Z-3,13 ODDA); the binary blend (Z,Z-3,13-ODDA:E,Z-2,13-ODDA=94:6); a second two-component blend (Z,Z-3,13-ODDA:Z,E-3,13-ODDA=94:6, based on the molar amount of the Z,Z-3,13-octadecadienyl acetate in the composition); the trinary blend (Z,Z-3,13-ODDA:E,Z-2,13-ODDA:Z,E-3,13-ODDA=88:6:6); and control. Next, to evaluate the attractive effect of addition of third component, 0.5, 1, 3, or 10% based on the molar amount of the Z,Z-3,13-octadecadienyl acetate of Z,E-3,13-ODDA were added into the binary blend individually. Similarly, 0.5, 1, 3, or 10% of E,Z-2,13-ODDA were individually added into a blend consisted of Z,Z-3,13-ODDA:Z, E-3,13-ODDA (94:6) to evaluate the effect of E,Z-2,13-ODDA. In another comparison, 0.5, 1, 2, or 3% E,Z-3,13-ODDA was added to the trinary blend. Dose response tests of the trinary and binary blends were deployed in each location, with doses consisting of 10-μg, 100-μg, 300-μg, 1-mg, and 10-mg (trinary blend); and 10-μg, 100-μg, 300-μg, 500-μg, and 1-mg (binary blend), respectively. Caged live virgin females (2-4 days old and 1 female per cage) were deployed in traps to provide a natural source of pheromone for comparison with traps baited with the binary and trinary blends. In a final comparison to determine over what distance DWB can detect the trinary blend, we compared captures in traps baited with the trinary blend deployed within an infested apple orchard, and 50 and […] outside the orchard within a large wood lot habitat.
Statistics: The data on control traps were omitted in the analysis because of zero trap catches. Unless otherwise specified, data on trap catches from each test were logarithm transformed (log χ+1) to normalize the variance before analysis. Means were compared by one-way analysis of variance (ANOVA) followed by Ryan-Einot-Gabriel-Welsch Range test (SPSS 10.0 for Windows, George and Mallery, 2002) for significance at α=0.05.

dogwood borer (DWB) = experiment: Species-specificity of lures: share of dogwood borer in captures; format: in vivo, Synanthedon scitula; settings: across all sites; FIG. 10
Description: Field Trapping Tests: Red natural rubber septa (5 mm, Wheaton, N.J.) loaded with the desired rates of Z,Z-3,13-ODDA and the blends in […] of hexane solution were used for field deployment. The same amount of solvent (hexane) was loaded on the septum for the blank control. After loading, the solvent was allowed to evaporate in a fume hood for 30 min. Lures were then wrapped in aluminum foil, stored in 20 ml plastic vials, and shipped by express carrier on the same day. Upon arrival, the lures were kept in a freezer at −10° C. until deployed. All field tests were conducted in commercial apple fields in WV, VA, and NC using Pherocon 1C or Delta sticky traps (Trécé, Salinas, Calif.). Traps were placed in trees at ˜1.2 m above the ground (Riedi, Fla., et al., Cana. Entomol., 117: 1367-1377 (1985)). At each location, experimental lures were randomized within each of three to five rows (depending on the number of replicates per test) and separated by at least one buffer row, and traps were spaced at a minimum of ˜25 m intervals within a row. Traps were rotated among positions within each row at weekly intervals for the duration of each test. The number of dogwood borer, peachtree borer, lilac borer, and other male Sesiidae moths captured were recorded weekly. […]

With `CCCC/C=C/CCCCCCCCC/C=C/COC(C)=O` [(E,E)-2,13-Octadecadienyl acetate, reference compound] the “EAD activity in 10 ng of loading” value (adult male DWB antenna) was 0.012 (±0.21% SD, n = 3) mV.

`CCCC/C=C/CCCCCCCC/C=C/CCOC(C)=O` [(E,E)-3,13-Octadecadienyl acetate, E,E-3,13-octadecadienyl acetate, reference compound] was tested, and the “EAD activity in 10 ng of loading” value (adult male DWB antenna) was 0.12 (±3.5% SD, n = 3) mV.

`CCCC/C=C\CCCCCCCCC/C=C/COC(C)=O` [(E,Z)-2,13-Octadecadienyl acetate, E,Z-2,13-octadecadienyl acetate] was tested, and the “EAD activity in 10 ng of loading” value (adult male DWB antenna) was 0.13 (±1.2% SD, n = 3) mV, the “EAD activity / electroantennogram response” value (adult male DWB antenna) was “confirmed by synthetic standards” and the “effect on attraction of adding the compound to Z,Z-3,13-ODDA:Z,E-3,13-ODDA (94:6) blend” value ([1]; 0.5 to 10% added, FIG. 4) was “significantly increased”. For the same compound, the “amount added to 94:6 (Z,Z-3,13-ODDA:Z,E-3,13-ODDA) blend at which captures increased significantly” value ([1]; all locations, FIG. 4) was ≤ 1%.

`CCCC/C=C/CCCCCCCCC/C=C\COC(C)=O` [(Z,E)-2,13-Octadecadienyl acetate, reference compound] was tested, and the “EAD activity in 10 ng of loading” value (adult male DWB antenna) was 0.030 (±0.10% SD, n = 3) mV.

In the case of `CCCC/C=C\CCCCCCCC/C=C\CCOC(C)=O` [(Z,Z)-3,13-Octadecadienyl acetate, Z,Z-3,13-octadecadienyl acetate], the “percentage of captures that were male dogwood borers” value (dogwood borer (DWB)) is reported as 92-99.6%, the “EAD activity in 10 ng of loading” value (adult male DWB antenna) is reported as 0.30 (±9.5% SD, n = 3) mV and the “EAD activity / electroantennogram response” value (adult male DWB antenna) is reported as “confirmed by synthetic standards”. For the same compound, the “attraction of male DWB (trap captures), blend comparison” value ([1]; septa containing 1-mg, NC, VA, WV, FIG. 2, listed as Z,Z-3,13-ODDA) was “surprisingly attractive; also recorded: reliably attract male DWB”.

In the case of `CCCC/C=C/CCCCCCCC/C=C\CCOC(C)=O` [(Z,E)-3,13-Octadecadienyl acetate, Z,E-3,13-octadecadienyl acetate], the “EAD activity in 10 ng of loading” value (adult male DWB antenna) is reported as 0.25 (±1.0% SD, n = 3) mV and the “effect on attraction of adding the compound to the binary blend” value ([1]; 0.5 to 10% added to binary blend (94:6), FIG. 3, listed as Z,E-3,13-ODDA) is reported as “did not cause a significant increase in attraction; also recorded: did not observe a similar response”.

`CCCC/C=C\CCCCCCCCC/C=C\COC(C)=O` [(Z,Z)-2,13-Octadecadienyl acetate, reference compound] was tested, and the “EAD activity in 10 ng of loading” value (adult male DWB antenna) was 0.029 (±0.79% SD, n = 3) mV.

For `CCCC/C=C\CCCCCCCC/C=C/CCOC(C)=O` [(E,Z)-3,13-Octadecadienyl acetate, E,Z-3,13-octadecadienyl acetate], the “EAD activity in 10 ng of loading” value (adult male DWB antenna) was 0.30 (±8.7% SD, n = 3) mV, the “EAD activity / electroantennogram response” value (adult male DWB antenna) was “just as strong an electroantennogram response as Z,Z-3,13-ODDA” and the “effect on trap captures of DWB (attraction antagonism)” value ([1]; added to trinary blend, FIG. 5, listed as E,Z-3,13-ODDA) was “reduced trap captures of DWB significantly; also recorded: inhibit (antagonize) DWB male response and movement”. The “amount added to trinary blend that significantly inhibited (reduced) trap captures” value ([1]; all locations, FIG. 5, listed as E,Z-3,13-ODDA) was ≤ 0.5% and the “amount added to trinary blend that significantly inhibited (reduced) trap captures” value ([1]; all locations, FIG. 5, listed as E,Z-3 μl 3-ODDA) was 0.5-1%.
